Assays:
[1] = tested on: site-specific phosphorylation changes in liver samples; assay: Phospho-proteomics of liver from treated Zucker fatty rats; type: in vivo; details: BT2 vs vehicle ZFR
Experimental: Phosphoproteomics: Large-scale measurements of phosphorylation changes in response to BT2 and PPM1K were performed. Briefly, protein from livers of ZFR treated with BT2 or DMSO, or with Ad-CMV-PPM1K or Ad-CMV-GFP, were solubilized, digested with LysC and trypsin, labeled with TMT-6plex reagents, and mixed in batches of six to enable two direct comparisons: 1) BT2 vs. DMSO (n=3), 2) PPM1K vs. GFP (n=3). Phosphopeptides were enriched from the majority of each mixture using immobilized metal affinity chromatography (IMAC), and a small portion of the input material was retained for assessment of relative protein abundance. Both phosphopeptide and input fractions were subjected to nanoLC-MS/MS using a nano-Acquity UPLC system (Waters) coupled to a Q Exactive Plus Hybrid Quadrupole-Orbitrap mass spectrometer (Thermo Fischer Scientific). Raw LC-MS/MS data were processed in Proteome Discoverer v2.1 (PD2.1, Thermo Fisher Scientific) and subsequent statistical analysis was performed in Microsoft EXCEL. […] (PD2.2, Thermo Fisher Scientific). Phosphosite motif analysis and logo generation was performed in PhosphoSitePlus® by submitting pre-aligned 15 amino acid sequences for all modulated phosphopeptides from each study into the motif and logo analysis tools (Hornbeck et al., 2015).
Tissue lysis and protein digestion for proteomics: Approximately 50 mg of pulverized liver tissue power from each rat (3 BT2- and 3 DMSO-treated animals; 3 PPM1K- and 3 GFP-overexpressing animals) was re-suspended in 400 μL of ice-cold 8M Urea Lysis Buffer (8 M urea in 50 mM Tris, pH 8.0, 40 mM NaCl, 2 mM MgCl2, 1 mM Na3VO4, 10 mM Na4P2O7, 50 mM NaF, supplemented with protease inhibitor (1× cOmplete mini EDTA-free) and phosphatase inhibitor (1× PhosStop) tablets). […] Protein concentration was determined by BCA, and equal amounts of protein (500 μg, adjusted to 2.5 mg/mL with Urea Lysis Buffer) from each sample was reduced with 5 mM DTT at 37° C. for 30 min, cooled to RT, alkylated with 15 mM iodoacetamide for 30 min in the dark and unreacted iodoacetamide quenched by the addition of DTT up to 15 mM. […]

ATP citrate lyase (ACL) = assay: Immunoblot of phospho-ser454 and total ACL in liver of treated Zucker fatty rats; type: in vivo; details: ZFR, BT2 vs vehicle
Experimental: Individually housed, male 12 week-old Zucker fatty rats (ZFR, Charles River Laboratories) maintained on a custom control low fat (LF) diet (A11072001, Research Diets) were used for the BDK inhibition and PPM1K overexpression studies. For the BDK inhibition study, ZFR were administered the small molecule BDK inhibitor 3,6-dichlorobenzo[b]thiophene-2-carboxylic acid (BT2, Sigma) daily at a dose of 20 mg/kg dissolved in 200 ul of sterile dimethylsulfoxide by i.p. injection for 7 days. The control group was administered an equal volume of vehicle each day. On day 6, following an overnight fast, ZFR were subjected to a 1 g/kg i.p. glucose tolerance test (GTT) precisely 1 hr after administration of BT2 (20 mg/kg i.p.) or vehicle. The glucose tolerance test was performed as described (White, et al., 2016). Following the GTT, rats were returned to their normal cages and provided free access to food and water. Indirect calorimetry was performed in a second cohort of BT2 treated rats on day 6 of BT2 administration. […]
Immunoblotting: Tissue lysates used for immunoblotting were prepared in Cell Lysis Buffer (Cell Signaling Technologies) containing protease inhibitor tablets (Roche), phosphatase inhibitor cocktails 2 and 3 (Sigma), and 10 mM PMSF. […] Immunoblots were developed using a Li-Cor Odyssey CLx and quantified using the Li-Cor software.

O=C(O)c1sc2cc(Cl)ccc2c1Cl [BT2, 3,6-dichlorobenzo[b]thiophene-2-carboxylic acid]
phosphorylation of serine 25, serine 29 and serine79 of acetyl-coA carboxylase 1 (ACC1), phospho-proteomics [1]: less phosphorylated | phosphosite serine 454 of ATP-citrate lyase (ACL), phospho-proteomics [1]: significantly downregulated | Log2 fold change in phosphorylation of serine 293 (serine 333) of BCKDH e1a, phospho-proteomics ([1]; p=0.054): −0.68 | ACL phosphorylation on ser454, immunoblot of liver lysates (ATP citrate lyase (ACL)): markedly less | abundance of total ACL protein in liver (ATP citrate lyase (ACL)): trend for lower abundance

From patent US20210267939A1, “COMPOSITIONS AND METHODS FOR TREATING NAFLD/NASH AND RELATED DISEASE PHENOTYPES” (priority 2018, published 2021)
